Measurements taken from patent US7608750B2, “Nonhuman model animal unresponsive to immunopotentiating synthetic compound” (Japan Science and Technology Agency, priority 2001, dated 2009).

How the values were obtained:
[1] = system: various types of cells; settings: cited from earlier work
[2] = system: animal model; settings: cited from earlier work
[3] = system: BALB/c mice (wild-type); assay: Serum cytokines after oral administration of imidazoquinolines; format: in vivo, mouse; settings: after two hours, N=3
Protocol: (§1) Before examining the reactivity of TLR7 knockout mice to imiquimod and R-848 which are imidazoquinoline group compound, firstly imiquimod or R-848 were administered to BALB/c mice (wild-type) orally at the predetermined concentration, respectively, the concentration of IFN-α, TNF-α and IL-12 in serum were measured after two hours. […] The data is shown as a mean value+/−S.D. (N=3). Similarly, the ability of these compounds to activate immune cells via TLR was examined using imiquimod or R-848 respectively. The peritoneal macrophages (5×10^4 cells) from wild-type mice and MyD88 knockout mice prepared in example 2, were stimulated by imiquimod or R-848, in the presence or absence of 30 U/ml of IFN-γ, and the concentration of TNF-α and IL-12 produced by peritoneal macrophages were measured by ELISA. […] The data is shown as a mean value+/−S.D. (N=3).

[4] = system: peritoneal macrophages from MyD88 knockout mice; assay: Cytokine production by peritoneal macrophages (ELISA), MyD88 knockout; format: cell-based, mouse; settings: 5×10^4 cells, presence or absence of 30 U/ml IFN-γ
Protocol: (§2) 2 ml of 4% thioglycollic acid medium (DIFCO) were injected into the intraperitoneals of the wild-type mice, TLR7 knockout mice (TLR7KO), MyD88 knockout mice (MyD88KO) and TLR9 knockout mice (TLR9KO), respectively, three days later, peritoneal exudate cells were isolated from intraperitoneal of each mouse, these cells were cultured in PRMI 1640 medium (GIBCO) added with 10% fatal bovine serum (GIBCO) at 37° C. for two hours, nonadherent cells were […] by washing with Hank's buffered salt solution (HBBS; GIBCO) at iced temperature, and the adherent cells were used as peritoneal macrophages in following experiment. Total RNA (10 μg) obtained from macrophages derived from the wild-type mice (+/Y) and TLR7 knockout mouse (TLR7KO) was electrophoresed, transferred onto a nylon membrane, and hybridized with a part of TLR7 DNA, and this membrane was rehybridized with β-actin probe. It was examined by the Northern blotting. From the results shown in FIG. 3, the expression of TLR7mRNA could not be found in TLR7 knockout mice.
(§3) In addition, the measurement of cytokine generated from peritoneal macrophages was executed as follows; […] peritoneal macrophages of 2×10^5 well or 5×10^4 well were cultured in 96-well plate respectively, and after stimulated with the above-mentioned reagents for 24 h, concentration of TNF-α, IL-12p40, IL-6 and/or IFN-α were measured by ELISA according to the manual.
as §1

[5] = system: NF-κB and MAP kinase; settings: cited from earlier work
[6] = system: human papilloma virus; settings: actual treatment; cited from earlier work
[7] = system: peritoneal macrophages from wild-type mice; assay: Cytokine production by peritoneal macrophages (ELISA), wild-type; format: cell-based, mouse; settings: 5×10^4 cells, presence or absence of 30 U/ml IFN-γ
Protocol: as §2, §3, §1

[8] = system: cytomegalovirus; settings: cited from earlier work
[9] = system: type 2 herpes simplex virus; settings: cited from earlier work
[10] = system: splenic cells derived from wild-type mice; assay: Splenic cell proliferation ([3H] thymidine incorporation), wild-type; format: cell-based, mouse; settings: 5×10^4 cells, cultured 48 h
Protocol: (§4) As activated phenotypes were proliferated and expressed by stimulating B-lymphocytes with imidazoquinoline group compounds, the proliferation of splenic cells was examined (Cell. Immunol. 203, 55-62, 2000; J. Immunol. 165, 5552-5557, 2000). Splenic cells (5×10^4 cells) derived from TLR7 knockout mice (TLR7KO) and wild-type mice were stimulated with R-848 and CpGDNA at a predetermined concentration, cultured for 48 h (cultured by adding [^3H] thymidine for last eight hours), and measured the level of thymidine incorporation using a β scintillation counter. A mean value+/−S.D., obtained from representative experiment among triplicate experiments is shown.

[11] = system: BMDC derived from TLR7 knockout mice (TLR7KO); assay: Surface CD40, CD80, CD86 expression on bone marrow dendritic cells (flow cytometry), TLR7 knockout; format: cell-based, mouse; settings: stimulated 24 h
Protocol: (§5) The reactivity to R-848 in dendritic cells derived from bone marrow (BMDC) derived from TLR7 knockout mice (TLR7KO) and the wild-type mice was examined. The bone marrow cells obtained from TLR7 knockout mice and wild-type mice were cultured for six days in RPMI-1640 medium supplemented with 10% fatal bovine serum and 10 ng/ml of GM-CSF (mouse granulocyte/macrophage colony stimulating factor). The obtained mouse undifferentiated dendritic cells were stimulated with R-848 or CpGDNA for 24 h, the cells were stained with biotinylated antibody to CD40, CD80 and CD86, and phycoerythrin (PE)-associated streptavidin was detected, which was analyzed by automated-cell analysing system (FACSCalibur). The results of examination of the expression of the molecules of CD40, CD80 and CD86 onto the surface of cells by flow cytometry are shown in FIG. 11. Similar to the case with CpGDNA, when BMDC derived from wild-type mice was stimulated with R-848, upregulation of CD40, CD80 and CD86 expression was induced. On the contrary, when BMDC derived from TLR7 knockout mice (TLR7KO) was stimulated with R-848, the expression of these molecules on cell surface was not enhanced.

[12] = system: TLR7 knockout mice; assay: Serum cytokines after intraperitoneal R-848, TLR7 knockout mice; format: in vivo, mouse; settings: 50 nmol intraperitoneally, ELISA
Protocol: (§6) It was examined in vivo whether TLR7 was involved in a response to R-848. The wild-type mice, MyD88 knockout mice or TLR7 knockout mice were injected intraperitoneally with 50 nmol of R-848, the sera were harvested after a predetermined period of time, and the concentration of IFN-α, TNF-α and IL12p40 in sera was determined by ELISA. […] On the contrary, the increment of these cytokines was not observed in TLR7 knockout mice.

[13] = system: peritoneal macrophages derived from TLR7 knockout mice (TLR7KO); assay: Cytokine production by peritoneal macrophages (ELISA), TLR7 knockout; format: cell-based, mouse; settings: 5×10^4 cells, presence or absence of 30 U/ml IFN-γ, 24 h culture
Protocol: as §2, §3
Next, the peritoneal macrophages (5×10^4 cells) derived from TLR7 knockout mice (TLR7KO), TLR9 knockout mice (TLR9KO) and wild-type mice were stimulated with CpGDNA 1668 (phosphorothioate 1688). D19, AAC30, natural 1688 (phosphodiester 1688). genomic DNA derived from Escherichia coli, or genomic DNA derived from Micrococcus deikticus at of a predetermined concentration in the presence (+) or absence (−) of 30 U/ml of IPN-γ, and the concentration of IL-12p40 produced by production of peritoneal macrophages contained in cultured supernatant was measured by ELISA after 24 h of culture. The results are shown in FIG. 6 (in the figure, marks of * show detection limits and below). […]

[14] = system: splenic cells derived from TLR7 knockout mice (TLR7KO); assay: Splenic cell proliferation ([3H] thymidine incorporation), TLR7 knockout; format: cell-based, mouse; settings: 5×10^4 cells, cultured 48 h
Protocol: as §4

[15] = target: T1, TLR7 (Homo sapiens, UniProt Q9NYK1); assay: NF-κB reporter gene (luciferase) in HEK293 cells transfected with TLR7 expression plasmids; format: cell-based; settings: HEK293 cells transiently cotransfected with human TLR7 expression plasmids, before and after R-848 stimulation
T1 construct: expressed in transfected cells; host or cells: HEK293
Protocol: (§7) The functional role of TLR7 in transactivation of NF-κB reporter gene induced by R-848 was examined. HEK293 cells were transiently cotransfected with TLR7 expression plasmids derived from human, and luciferase activity was measured before and after R-848 stimulation. The peritoneal macrophages derived from TLR7 knockout mice (TLR7KO) and wild-type mice stimulated with thioglycollic acid were stimulated with 100 nm of R-848 or 1.0 μM of phosphothioate modified CpGDNA 1668 (CpG), all cell lysate were prepared, immunoprecipated with anti-JNK antibody, and JNK activity was examined by In Vitro Kinase Assay using GST-c-Jun fusion protein as a substrate. The same lysate was blotted with anti-JNK antibody. Moreover, the lysate was immunoprecipated with anti-IRAK, and kinase activity of IRAK was examined by In Vitro Kinase Assay. The same lysate was blotted with anti-IRAK antibody. […] It is important to activate TLR7-MyD88-dependent signal pathway for the effect of imidazoquinoline in vivo.

[16] = system: genital herpes; settings: actual treatment; cited from earlier work
[17] = system: BMDC derived from wild-type mice; assay: Surface CD40, CD80, CD86 expression on bone marrow dendritic cells (flow cytometry), wild-type; format: cell-based, mouse; settings: stimulated 24 h
Protocol: as §5

[18] = system: macrophages derived from wild-type mice; assay: Intracellular signalling (NF-κB EMSA, JNK and IRAK in vitro kinase assay) in macrophages, wild-type; format: cell-based, mouse; settings: 100 nM R-848 or 1.0 μM CpGDNA 1668
Protocol: (§8) Next, the activation of intracellular signaling cascade to an antiviral immune-modulator was examined. Peritoneal macrophages (2×10^6 cells) from TLR7 knockout mice (TLR7KO) and wild-type mice respectively stimulated with thioglycollic acid, were stimulated with 100 nM of R-848 or 1.0 μM of CpGDNA 1668 (CpG) for a certain period of time, nucleoprotein was extracted, the extract obtained with the specific probe including NF-κB associated-site was incubated, electrophoresed, visualized by autoradiography, and NF-κB activation was examined as DNA-associated protein by electrophoretic mobility shift assay (EMSA). In FIG. 12, an arrow indicates induced NF-κB complexes, and an arrow head indicates a free probe.
as §7

[19] = system: macrophages derived from TLR7 knockout mice; assay: Intracellular signalling (NF-κB EMSA, JNK and IRAK in vitro kinase assay) in macrophages, TLR7 knockout; format: cell-based, mouse; settings: TLR7KO macrophages, 100 nM R-848
Protocol: as §8, §7

[20] = system: MyD88 knockout mice; assay: Serum cytokines after intraperitoneal R-848, MyD88 knockout mice; format: in vivo, mouse; settings: 50 nmol intraperitoneally, ELISA
Protocol: as §6

[21] = system: wild-type mice; assay: Serum cytokines after intraperitoneal R-848, wild-type mice; format: in vivo, mouse; settings: 50 nmol intraperitoneally, ELISA
Protocol: as §6

T1 sequence (Q9NYK1 27-1049): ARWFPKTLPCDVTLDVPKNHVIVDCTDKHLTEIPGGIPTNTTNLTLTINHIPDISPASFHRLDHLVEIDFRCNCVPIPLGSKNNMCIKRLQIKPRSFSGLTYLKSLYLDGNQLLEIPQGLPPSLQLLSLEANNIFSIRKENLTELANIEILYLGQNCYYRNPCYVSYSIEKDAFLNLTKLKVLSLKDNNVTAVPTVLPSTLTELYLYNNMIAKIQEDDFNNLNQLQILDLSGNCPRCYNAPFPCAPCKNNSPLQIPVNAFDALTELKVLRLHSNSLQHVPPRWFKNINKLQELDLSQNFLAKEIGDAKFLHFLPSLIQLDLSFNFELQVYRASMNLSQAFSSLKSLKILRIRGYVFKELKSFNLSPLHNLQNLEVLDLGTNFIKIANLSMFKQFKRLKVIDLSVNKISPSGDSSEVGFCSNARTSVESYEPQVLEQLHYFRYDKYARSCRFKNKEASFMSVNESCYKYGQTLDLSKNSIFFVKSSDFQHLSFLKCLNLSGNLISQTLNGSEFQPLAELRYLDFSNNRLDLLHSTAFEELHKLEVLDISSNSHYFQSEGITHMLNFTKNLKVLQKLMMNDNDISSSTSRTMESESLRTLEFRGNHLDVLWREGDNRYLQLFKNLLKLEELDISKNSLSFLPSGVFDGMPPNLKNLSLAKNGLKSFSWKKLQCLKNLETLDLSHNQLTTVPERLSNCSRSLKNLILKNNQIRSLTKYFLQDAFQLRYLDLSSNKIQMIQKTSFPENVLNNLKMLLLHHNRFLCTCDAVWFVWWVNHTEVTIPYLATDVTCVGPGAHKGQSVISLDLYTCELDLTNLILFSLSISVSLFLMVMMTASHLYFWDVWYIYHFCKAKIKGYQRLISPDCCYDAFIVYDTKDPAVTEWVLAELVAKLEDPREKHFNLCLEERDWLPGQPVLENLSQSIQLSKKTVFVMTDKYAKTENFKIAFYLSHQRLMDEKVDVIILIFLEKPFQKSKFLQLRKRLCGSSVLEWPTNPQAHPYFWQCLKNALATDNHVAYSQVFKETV

Compound: CC(C)Cn1cnc2c(N)nc3ccccc3c21 [imiquimod]
- induction of cytokines such as IFN-α, IL-6 and IL-12 [1]: inducing cytokines such as IFN-α, IL-6 and IL-12
- antitumor activity [2]: antitumor activity
- antivirus activity [2]: shows antivirus activity
- concentration of IFN-α in serum [3]: increased depending on applied dose
- concentration of IL-12 in serum [3]: increased depending on applied dose
- concentration of TNF-α in serum [3]: increased depending on applied dose
- IL-12 produced by peritoneal macrophages [4]: hardly produced any cytokines
- TNF-α produced by peritoneal macrophages [4]: hardly produced any cytokines
- stimulation of NF-κB and MAP kinase [5]: stimulates
- treating pudendal wart (condyloma acuminatum) caused by human papilloma virus [6]: effective
- IL-12 produced by peritoneal macrophages [7]: in large amount
- TNF-α produced by peritoneal macrophages [7]: in large amount
- replication of cytomegalovirus [8]: inhibit the replication
- replication of type 2 herpes simplex virus [9]: inhibit the replication

Compound: CCOCc1nc2c(N)nc3ccccc3c2n1CC(C)(C)O [R-848, resiquimod]
- proliferation of splenic cells ([3H] thymidine incorporation) [10]: showed proliferation depending on concentration
- CD40 expression on cell surface [11]: not enhanced
- CD80 expression on cell surface [11]: not enhanced
- CD86 expression on cell surface [11]: not enhanced
- increment of IFN-α in sera [12]: not observed
- increment of IL12p40 in sera [12]: not observed
- increment of TNF-α in sera [12]: not observed
- production of IL-6 by peritoneal macrophages [13]: not confirmed
- production of IL-12p40 by peritoneal macrophages [13]: not confirmed
- production of TNF-α by peritoneal macrophages [13]: not confirmed
- concentration of IFN-α in serum [3]: increased depending on applied dose
- concentration of IL-12 in serum [3]: increased depending on applied dose
- concentration of TNF-α in serum [3]: increased depending on applied dose
- proliferation of splenic cells ([3H] thymidine incorporation) [14]: did not show proliferation
- IL-12 produced by peritoneal macrophages [4]: hardly produced any cytokines
- TNF-α produced by peritoneal macrophages [4]: hardly produced any cytokines
- NF-κB-dependent promoter (luciferase activity) [15]: promoted
- treating genital herpes [16]: effective
- CD40 expression on cell surface [17]: upregulation
- CD80 expression on cell surface [17]: upregulation
- CD86 expression on cell surface [17]: upregulation
- activation of c-Jun N terminal kinase (JNK) [18]: induced
- enhanced DNA avidity of NF-κB transcription (EMSA) [18]: induced
- phosphorylation of IRAK [18]: induced
- IL-12 produced by peritoneal macrophages [7]: in large amount
- TNF-α produced by peritoneal macrophages [7]: in large amount
- activation of c-Jun N terminal kinase (JNK) [19]: completely destructed
- enhanced DNA avidity of NF-κB transcription (EMSA) [19]: completely destructed
- phosphorylation of IRAK [19]: completely destructed
- concentration of IFN-α in sera [20]: did not show any reactivity
- concentration of IL12p40 in sera [20]: did not show any reactivity
- concentration of TNF-α in sera [20]: did not show any reactivity
- concentration of IFN-α in sera [21]: increased significantly
- concentration of IL12p40 in sera [21]: increased significantly
- concentration of TNF-α in sera [21]: increased significantly
